Test results taken from patent US20230002359A1, “PESTICIDALLY ACTIVE FUSED BICYCLIC HETEROAROMATIC COMPOUNDS” (priority 2019, published 2023).

Key:
Type in all cases: in vivo
[1] = tested on: Chilo suppressalis (Striped Rice Stemborer); assay: Example B3: Chilo suppressalis (striped rice stemborer), artificial diet, L2 larvae; settings: 144 h, application rate of 200 ppm, 6 days after infestation, L2 larvae, read-out: control in at least one of the three categories (mortality, anti-feedant effect, or growth inhibition)
Method in brief: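 First, artificial diet was treated with aqueous solutions prepared from 10'000 ppm DMSO stocks; second, after drying, L2 larvae (6-8/well) were added; third, effects were assessed at 6 days against untreated controls, counting control when any of three categories was higher.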

[2] = tested on: Myzus persicae (Green Peach Aphid); assay: Example B6: Myzus persicae (green peach aphid) intrinsic activity, sucrose solution; settings: 120 h, test rate of 12 ppm, 5 days after infestation, intrinsic activity, read-out: mortality
Protocol: Test compounds prepared from 10′000 ppm DMSO stock solutions were applied by pipette into 24-well microtiter plates and mixed with sucrose solution. The plates were closed with a stretched Parafilm. A plastic stencil with 24 holes was placed onto the plate and infested pea seedlings were placed directly on the Parafilm. The infested plate was closed with a gel blotting paper and another plastic stencil and then turned upside down. The samples were assessed for mortality 5 days after infestation.

[3] = tested on: Diabrotica Balteata (Corn Root Worm); assay: Example B1: Diabrotica balteata (corn root worm), maize sprouts sprayed, L2 larvae; settings: 96 h, application rate of 200 ppm, 4 days after infestation, L2 larvae, read-out: control in at least one of the two categories (mortality or growth inhibition)
Method in brief: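 Read-out is mortality plus growth inhibition relative to untreated controls, assessed 4 days after infestation. Sprouts resting on agar are sprayed with aqueous solutions derived from 10′000 ppm DMSO stocks and left to dry before L2 larvae (6 to 10 per well) are added.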

[4] = tested on: Plutella xylostella (Diamond Back Moth); assay: Example B4: Plutella xylostella (diamond back moth), artificial diet, eggs, 24-well; settings: 192 h, application rate of 200 ppm, 8 days after infestation, eggs, read-out: control in at least one of the two categories (mortality or growth inhibition)
Protocol: 24-well microtiter plates with artificial diet were treated with aqueous test solutions prepared from 10′000 ppm DMSO stock solutions by pipetting. After drying, Plutella eggs were pipetted through a plastic stencil onto a gel blotting paper and the plate was closed with it. The samples were assessed for mortality and growth inhibition in comparison to untreated samples 8 days after infestation.

[5] = tested on: Spodoptera littoralis (Egyptian Cotton Leaf Worm); assay: Example B7: Spodoptera littoralis (Egyptian cotton leaf worm), cotton leaf discs sprayed, L1 larvae; settings: foliar, 72 h, application rate of 200 ppm, 3 days after infestation, L1 larvae, read-out: control in at least one of the three categories (mortality, anti-feedant effect, or growth inhibition)
Method in brief: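 Leaf discs on agar sprayed with aqueous dilutions of 10′000 ppm DMSO stocks, dried, then infested with five L1 larvae. Mortality, anti-feeding and growth inhibition scored versus untreated 3 days after infestation; control given when any category exceeds untreated.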

CC(Nc1ncnc2c(Br)cc(OC(F)(F)F)cc12)c1nccnc1-c1ncccn1 (stereo not shown) [P.12, 8-bromo-N-[1-(3-pyrimidin-2-ylpyrazin-2-yl)ethyl]-6-(trifluoromethoxy)quina-zolin-4-amine]
≥ 80%: percent control (mortality, anti-feedant effect or growth inhibition) at 200 ppm [1] | mortality at 12 ppm [2] | percent control (mortality or growth inhibition) at 200 ppm [3] | percent control (mortality or growth inhibition) at 200 ppm [4] | percent control (mortality, anti-feedant effect or growth inhibition) at 200 ppm [5]

C[C@@H](c1ncnn1-c1ccc(C#N)cn1)N(C)c1ncnc2c(C(F)(F)F)cc(C3CC3)cc12 [P.177, 6-[5-[(1S)-1-[[6-cyclopropyl-8-(trifluoromethyl)quinazolin-4-yl]-methyl-amino]ethyl]-1,2,4-triazol-1-yl]pyridine-3-carbonitrile]
≥ 80%: percent control (mortality, anti-feedant effect or growth inhibition) at 200 ppm [1] | mortality at 12 ppm [2] | percent control (mortality or growth inhibition) at 200 ppm [3] | percent control (mortality or growth inhibition) at 200 ppm [4] | percent control (mortality, anti-feedant effect or growth inhibition) at 200 ppm [5]

CC(c1nccnc1-c1ncccn1)N(C)c1ncnc2c(C(F)(F)F)cc(Br)cc12 (stereo not shown) [P.98, 6-bromo-N-methyl-N-[1-(3-pyrimidin-2-ylpyrazin-2-yl)ethyl]-8-(trifluoromethyl)quinazolin-4-amine]
≥ 80%: percent control (mortality, anti-feedant effect or growth inhibition) at 200 ppm [1] | mortality at 12 ppm [2] | percent control (mortality or growth inhibition) at 200 ppm [3] | percent control (mortality or growth inhibition) at 200 ppm [4] | percent control (mortality, anti-feedant effect or growth inhibition) at 200 ppm [5]

CC(c1nccnc1-c1ncccn1)N(C)c1ncnc2c(Br)cc(Cl)cc12 (stereo not shown) [P.182, 8-bromo-6-chloro-N-methyl-N-[1-(3-pyrimidin-2-ylpyrazin-2-yl)ethyl]quinazolin-4-amine]
≥ 80%: mortality at 12 ppm [2] | percent control (mortality or growth inhibition) at 200 ppm [3] | percent control (mortality or growth inhibition) at 200 ppm [4] | percent control (mortality, anti-feedant effect or growth inhibition) at 200 ppm [5]

CC(Nc1ncnc2c(C(F)(F)F)cc(Br)cc12)c1ncnn1-c1ncccn1 (stereo not shown) [P.44, 6-bromo-N-[1-(2-pyrimidin-2-yl-1,2,4-triazol-3-yl)ethyl]-8-(trifluoromethyl)quinazolin-4-amine]
≥ 80%: percent control (mortality, anti-feedant effect or growth inhibition) at 200 ppm [1] | mortality at 12 ppm [2] | percent control (mortality or growth inhibition) at 200 ppm [3] | percent control (mortality or growth inhibition) at 200 ppm [4] | percent control (mortality, anti-feedant effect or growth inhibition) at 200 ppm [5]

C[C@H](Nc1ncnc2c(C(F)(F)F)cc(I)cc12)c1nccnc1-c1ccc(C#N)cn1 [P.162, 6-[3-[(1S)-1-[[6-iodo-8-(trifluoromethyl)quinazolin-4-yl]amino]ethyl]pyrazin-2-yl]pyridine-3-carbonitrile]
≥ 80%: percent control (mortality, anti-feedant effect or growth inhibition) at 200 ppm [1] | mortality at 12 ppm [2] | percent control (mortality or growth inhibition) at 200 ppm [3] | percent control (mortality or growth inhibition) at 200 ppm [4] | percent control (mortality, anti-feedant effect or growth inhibition) at 200 ppm [5]

CC(c1ncnn1-c1ccc(C#N)cn1)N(C)c1ncnc2c(OC(F)F)cc(Br)cc12 (stereo not shown) [P.230, 6-[5-[1-[[6-bromo-8-(difluoromethoxy)quinazo-lin-4-yl]-methyl-amino]ethyl]-1,2,4-triazol-1-yl]pyridine-3-carbonitrile]
≥ 80%: percent control (mortality, anti-feedant effect or growth inhibition) at 200 ppm [1] | mortality at 12 ppm [2] | percent control (mortality or growth inhibition) at 200 ppm [3] | percent control (mortality or growth inhibition) at 200 ppm [4] | percent control (mortality, anti-feedant effect or growth inhibition) at 200 ppm [5]

C[C@@H](c1ncnn1-c1ncccn1)N(C)c1ccnc2c(C(F)(F)F)cc(C(F)(F)F)cc12 [P.88, N-methyl-N-[(1S)-1-(2-pyrimidin-2-yl-1,2,4-triazol-3-yl)ethyl]-6,8-bis(trifluoromethyl)quino-lin-4-amine]
≥ 80%: percent control (mortality, anti-feedant effect or growth inhibition) at 200 ppm [1] | mortality at 12 ppm [2] | percent control (mortality or growth inhibition) at 200 ppm [3] | percent control (mortality or growth inhibition) at 200 ppm [4]

CC(Nc1ncnc2c(OC(F)F)cc(Br)cc12)c1nccnc1-c1ncccn1 (stereo not shown) [P.32, 6-bromo-8-(difluoromethoxy)-N-[1-(3-pyrimidin-2-ylpyrazin-2-yl)ethyl]quinazolin-4-amine]
≥ 80%: percent control (mortality, anti-feedant effect or growth inhibition) at 200 ppm [1] | mortality at 12 ppm [2] | percent control (mortality or growth inhibition) at 200 ppm [3] | percent control (mortality or growth inhibition) at 200 ppm [4] | percent control (mortality, anti-feedant effect or growth inhibition) at 200 ppm [5]

CC(Nc1ncnc2c(Br)cc(Br)cc12)c1ncnn1-c1ncccn1 (stereo not shown) [P.29, 6,8-dibromo-N-[1-(2-pyrimidin-2-yl-1,2,4-triazol-3-yl)ethyl]quinazolin-4-amine]
≥ 80%: percent control (mortality, anti-feedant effect or growth inhibition) at 200 ppm [1] | mortality at 12 ppm [2] | percent control (mortality or growth inhibition) at 200 ppm [3] | percent control (mortality or growth inhibition) at 200 ppm [4] | percent control (mortality, anti-feedant effect or growth inhibition) at 200 ppm [5]

CC(Nc1ncnc2c(Br)cc(Cl)cc12)c1nccnc1-c1ncccn1 (stereo not shown) [P.183, 8-bromo-6-chloro-N-[1-(3-pyrimidin-2-ylpyrazin-2-yl)ethyl]quinazolin-4-amine]
≥ 80%: percent control (mortality, anti-feedant effect or growth inhibition) at 200 ppm [1] | mortality at 12 ppm [2] | percent control (mortality or growth inhibition) at 200 ppm [3] | percent control (mortality or growth inhibition) at 200 ppm [4] | percent control (mortality, anti-feedant effect or growth inhibition) at 200 ppm [5]

CC(Nc1ncnc2c(Br)cc(OC(F)(F)F)cc12)c1ncnn1-c1ncccn1 (stereo not shown) [P.229, 8-bromo-N-[1-(2-pyrimidin-2-yl-1,2,4-triazol-3-yl)ethyl]-6-(trifluoromethoxy)quinazo-line-4-amine]
≥ 80%: percent control (mortality, anti-feedant effect or growth inhibition) at 200 ppm [1] | mortality at 12 ppm [2] | percent control (mortality or growth inhibition) at 200 ppm [3] | percent control (mortality or growth inhibition) at 200 ppm [4] | percent control (mortality, anti-feedant effect or growth inhibition) at 200 ppm [5]

C[C@H](Nc1ncnc2c(Cl)cc(C(F)(F)F)cc12)c1ncnn1-c1ncccn1 [P.18, 8-chloro-N-[(1S)-1-(2-pyrimidin-2-yl-1,2,4-triazol-3-yl)ethyl]-6-(trifluoromethyl)quinazolin-4-amine]
≥ 80%: percent control (mortality, anti-feedant effect or growth inhibition) at 200 ppm [1] | mortality at 12 ppm [2] | percent control (mortality or growth inhibition) at 200 ppm [3] | percent control (mortality or growth inhibition) at 200 ppm [4] | percent control (mortality, anti-feedant effect or growth inhibition) at 200 ppm [5]

C[C@@H](c1ncnn1-c1ncccn1)N(C)c1ncnc2c(C(F)(F)F)cc(Br)cc12 [P.208, 6-bromo-N-methyl-N-[(1S)-1-(2-pyrimidin-2-yl-1,2,4-triazol-3-yl)ethyl]-8-(trifluoromethyl)quinazolin-4-amine]
≥ 80%: percent control (mortality, anti-feedant effect or growth inhibition) at 200 ppm [1] | mortality at 12 ppm [2] | percent control (mortality or growth inhibition) at 200 ppm [3] | percent control (mortality or growth inhibition) at 200 ppm [4] | percent control (mortality, anti-feedant effect or growth inhibition) at 200 ppm [5]

C[C@@H](c1ncnn1-c1ncccn1)N(C)c1ncnc2c(Cl)cc(OC(F)F)cc12 [P.91, 8-chloro-6-(difluoromethoxy)-N-methyl-N-[(1S)-1-(2-pyrimidin-2-yl-1,2,4-triazol-3-yl)ethyl]quinazolin-4-amine]
≥ 80%: percent control (mortality, anti-feedant effect or growth inhibition) at 200 ppm [1] | mortality at 12 ppm [2] | percent control (mortality or growth inhibition) at 200 ppm [3] | percent control (mortality or growth inhibition) at 200 ppm [4]

C[C@H](Nc1ncnc2c(C(F)(F)F)cc(Cl)cc12)c1ncnn1-c1ccc(C#N)cn1 [P.22, 6-[5-[(1S)-1-[[6-chloro-8-(trifluoromethyl)quinazolin-4-yl]amino]ethyl]-1,2,4-triazol-1-yl]pyridine-3-carbonitrile]
≥ 80%: percent control (mortality, anti-feedant effect or growth inhibition) at 200 ppm [1] | mortality at 12 ppm [2] | percent control (mortality or growth inhibition) at 200 ppm [3] | percent control (mortality or growth inhibition) at 200 ppm [4] | percent control (mortality, anti-feedant effect or growth inhibition) at 200 ppm [5]

C[C@@H](c1ncnn1-c1ccc(C#N)cn1)N(C)c1ncnc2c(Cl)cc(C(F)(F)F)cc12 [P.19, 6-[5-[(1S)-1-[[8-chloro-6-(trifluoromethyl)quinazolin-4-yl]-methyl-amino]ethyl]-1,2,4-triazol-1-yl]pyridine-3-carbonitrile]
≥ 80%: percent control (mortality, anti-feedant effect or growth inhibition) at 200 ppm [1] | percent control (mortality or growth inhibition) at 200 ppm [3] | percent control (mortality or growth inhibition) at 200 ppm [4] | percent control (mortality, anti-feedant effect or growth inhibition) at 200 ppm [5]

CC(Nc1ncnc2c(C(F)(F)F)cc(Br)cc12)c1nccnc1-n1nccn1 (stereo not shown) [P.33, 6-bromo-N-[1-[3-(triazol-2-yl)pyrazin-2-yl]ethyl]-8-(trifluoromethyl)quinazolin-4-amine]
≥ 80%: percent control (mortality, anti-feedant effect or growth inhibition) at 200 ppm [1] | percent control (mortality or growth inhibition) at 200 ppm [3] | percent control (mortality or growth inhibition) at 200 ppm [4] | percent control (mortality, anti-feedant effect or growth inhibition) at 200 ppm [5]
